Consider 30 compounds from US9808456B2, “Piperazine thiazole derivatives useful in the treatment of tauopathies such as Alzheimer's disease” (REMYND NV, priority 2011, dated 2017).

In this experiment the test system is M17_3TAU(P301L) cells. The experiment is described as follows: Neuroblastoma tauopathy model: inhibition of TAU-induced cytotoxicity (LDH) after retinoic acid differentiation. Format: cell-based. Conditions: Homo sapiens, 168 h, inhibition of TAU-induced toxicity, 7 days retinoic acid, LDH readout. The text has this: A TAU expression plasmid was constructed by sub-cloning the cDNA encoding for human TAU-P301L protein, wherein proline at position 301 is substituted by a leucine residue, into mammalian expression vector pcDNA3.1 resulting in the plasmid pcDNA3.1-TAUP301L. Plasmids pcDNA3.1 and pcDNA3.1-TAU P301L were transfected into human neuroblastoma cells (BE-M17; ATCC No. CRL2267™) using lipofectamine reagent and subsequently, independent clonal cell lines with the plasmids stably integrated into the genome were selected by antibiotic resistance selection (Geneticin (G418)), resulting in cell lines M17.pcDNA3 and M17_3TAUP301L. Expression of the TAUP301L gene in the M17_3TAUP301L cells was confirmed by Western blot analysis.
Differentiation of the cells with RA leads to phosphorylation and subsequent aggregation of TAU, inducing a tauopathy in these cells. Cytotoxicity of cells was measured by quantification of lactate dehydrogenase (LDH) levels. In dead cells LDH is leaked out of the cells into the medium due to a loss of plasma-membrane integrity.
Briefly, 3 days preceeding the experiment pre-cultures of M17.pcDNA3 and M17_3TAU(P301L) cells were prepared, starting from a stock culture, at a density of 50.000-100.000 cells/cm2 in detection medium (Optimem Reduced Serum without phenol red (Gibco, Cat. 31985-047) supplemented with 1% fetal calf serum (FCS), 1 mM sodium pyruvate, 1× non-essential amino acids (NEAR), 500 μg/ml G418 and 0.5× antibiotic/antimycotic (ABAM)). At the day of the experiment these precultures were diluted to ˜0, 1.106 cells/ml in detection medium without FCS and 60 μL of this suspension is dispensed per well into a 96-well microtiter plate. After 3 hours of incubation at 37° C./5% CO2 an equal volume of detection medium containing 2.5 μM RA was added and subsequently incubated for 7 days at 37° C./5% CO2. After 7 days, LDH activity was determined using the Promega Cytotox 96 Non-Radioactive cytotoxicity assay (Cat. G1780), according the manufacturer's instructions. Cytotoxicity is measured as the ratio of LDH increase in the supernatant divided by the LDH increase in the total cell suspension (sum of the LDH measured in cells and supernatant).
The M17_3TAU(P301L) cell line makes it possible to assess the ability of novel compounds to inhibit TAU-induced cytotoxicity. […] Compounds were tested for their ability to hamper TAU-induced toxicity at different concentrations, ranging from low non-effective concentrations to high potent concentrations. Afterwards, the dose-dependent inhibition curve was used to calculate their EC50 (Table III).

With `COc1ccc(CCN2CCN(c3nc(N4CCC(F)(F)CC4)ns3)CC2)cc1` [Example 1, 1-[3-(4,4-Difluoro-piperidin-1-yl)-[1,2,4]thiadiazol-5-yl]-4-[2-(4-methoxy-phenyl)-ethyl]-piperazine], the response was half-maximal at 0.6 nM (EC50).

Regarding `FC1(F)CCN(c2nsc(N3CCN(CCc4ccc(Cl)cc4)CC3)n2)C1` [Example 3, 1-[2-(4-Chloro-phenyl)-ethyl]-4-[3-(3,3-difluoro-pyrrolidin-1-yl)-[1,2,4]thiadiazol-5-yl]-piperazine], it took 8.8 nM to reach a half-maximal effect (EC50).

On to `FC1CCN(c2nsc(N3CCN(CCc4ccc(Cl)cc4)CC3)n2)CC1` [Example 4, 1-[2-(4-Chloro-phenyl)-ethyl]-4-[3-(4-fluoro-piperidin-1-yl)-[1,2,4]thiadiazol-5-yl]-piperazine], for which the EC50 (in general, the concentration giving half of the maximal effect) stood at 84.6 nM.

`FC(F)(F)C1CCN(c2nsc(N3CCN(CCc4ccc(Cl)cc4)CC3)n2)CC1` [Example 5, 1-[2-(4-Chloro-phenyl)-ethyl]-4-[3-(4-trifluoromethyl-piperidin-1-yl)-[1,2,4]thiadiazol-5-yl]-piperazine] showed a concentration for a half-maximal effect (EC50) of 47 nM.

For the compound `Clc1ccc(CCN2CCN(c3nc(N4CCCCC4)ns3)CC2)cc1` [Example 6, 1-[2-(4-Chloro-phenyl)-ethyl]-4-(3-piperidin-1-yl-[1,2,4]thiadiazol-5-yl)-piperazine], the half-maximal effective concentration (EC50) was determined as 64.1 nM.

In the case of `Clc1ccc(CCN2CCN(c3nc(NCC4CC4)ns3)CC2)cc1` [Example 7, (5-{4-[2-(4-Chloro-phenyl)-ethyl]-piperazin-1-yl}-[1,2,4]thiadiazol-3-yl)-cyclopropylmethyl-amine], it took 17.2 nM to reach a half-maximal effect (EC50).

Compound `Clc1ccc(CCN2CCN(c3nc(NC4CCOCC4)ns3)CC2)cc1` [Example 8, (5-{4-[2-(4-Chloro-phenyl)-ethyl]-piperazin-1-yl}-[1,2,4]thiadiazol-3-yl)-(tetrahydro-pyran-4-yl)-amine] showed an EC50 of 52.2 nM.

Turning to `Clc1ccc(CCN2CCN(c3nc(NC4CCCCC4)ns3)CC2)cc1` [Example 9, (5-{4-[2-(4-Chloro-phenyl)-ethyl]-piperazin-1-yl}-[1,2,4]thiadiazol-3-yl)-cyclohexyl-amine], the EC50 stood at 9.4 nM. Compared with the last compound, the EC50 is about 5.6-fold lower.

`Fc1ccc(CCN2CCN(c3nc(N4CCC(F)(F)CC4)ns3)CC2)cc1F` [Example 10, 1-[2-(3,4-Difluoro-phenyl)-ethyl]-4-[3-(4,4-difluoro-piperidin-1-yl)-[1,2,4]thiadiazol-5-yl]-piperazine]: the midpoint of the response, the EC50, lay at 12.1 nM. This EC50 and that of the compound before are within 1.5-fold of each other.

On to `Fc1ccc(CCN2CCN(c3nc(N4CCC(F)(F)C4)ns3)CC2)cc1F` [Example 11, 1-[2-(3,4-Difluoro-phenyl)-ethyl]-4-[3-(3,3-difluoro-pyrrolidin-1-yl)-[1,2,4]thiadiazol-5-yl]-piperazine], for which a half-maximal effect (EC50) was put at 11.4 nM. This EC50 and that of the compound before are within 1.5-fold of each other.

With `Fc1ccc(CCN2CCN(c3nc(N4CCC(F)CC4)ns3)CC2)cc1F` [Example 12, 1-[2-(3,4-Difluoro-phenyl)-ethyl]-4-[3-(4-fluoro-piperidin-1-yl)-[1,2,4]thiadiazol-5-yl]-piperazine], the EC50 was determined as 33.3 nM.

Turning to `Fc1ccc(CCN2CCN(c3nc(N4CCC(C(F)(F)F)CC4)ns3)CC2)cc1F` [Example 13, 1-[2-(3,4-Difluoro-phenyl)-ethyl]-4-[3-(4-trifluoromethyl-piperidin-1-yl)-[1,2,4]thiadiazol-5-yl]-piperazine], the EC50 amounted to 15.3 nM.

`Fc1ccc(CCN2CCN(c3nc(N4CCCC4)ns3)CC2)cc1F` [Example 14, 1-[2-(3,4-Difluoro-phenyl)-ethyl]-4-(3-pyrrolidin-1-yl-[1,2,4]thiadiazol-5-yl)-piperazine] had a 50% effective concentration (EC50) of 176 nM.

For `Fc1ccc(CCN2CCN(c3nc(NCC4CC4)ns3)CC2)cc1F` [Example 15, Cyclopropylmethyl-(5-{4-[2-(3,4-difluoro-phenyl)-ethyl]-piperazin-1-yl}-[1,2,4]thiadiazol-3-yl)-amine], the concentration for a half-maximal effect (EC50) is 38.4 nM.

Consider `Fc1ccc(CCN2CCN(c3nc(NC4CCOCC4)ns3)CC2)cc1F` [Example 16, (5-{4-[2-(3,4-Difluoro-phenyl)-ethyl]-piperazin-1-yl}-[1,2,4]thiadiazol-3-yl)-(tetrahydro-pyran-4-yl)-amine], for which the EC50 came to 34.5 nM. The EC50 values of the last two compounds are within 1.5-fold of each other.

`Fc1ccc(CCN2CCN(c3nc(NC4CCCCC4)ns3)CC2)cc1F` [Example 17, Cyclohexyl-(5-{4-[2-(3,4-difluoro-phenyl)-ethyl]-piperazin-1-yl}-[1,2,4]thiadiazol-3-yl)-amine]: a half-maximal response (EC50) required 3.8 nM.

`Fc1ccc(CCN2CCN(c3nc(N4CCCCC4)ns3)CC2)cc1F` [Example 18, 1-[2-(3,4-Difluoro-phenyl)-ethyl]-4-(3-piperidin-1-yl-[1,2,4]thiadiazol-5-yl)-piperazine] registered a concentration giving a half-maximal response (EC50) of 46.4 nM.

As for `Fc1ccc(CCN2CCN(c3nc(NC4CCC(C(F)(F)F)CC4)ns3)CC2)cc1F` (stereo not drawn) [Example 19, (5-{4-[2-(3,4-Difluoro-phenyl)-ethyl]-piperazin-1-yl}[1,2,4]thiadiazol-3-yl)-(4-trifluoromethyl-cyclohexyl)-amine], the midpoint of the response, the EC50, lay at 340 nM.

In turn, `CCCCN(CC)c1nsc(N2CCN(CCc3ccc(F)c(F)c3)CC2)n1` [Example 20, Butyl-(5-{4-[2-(3,4-difluoro-phenyl)-ethyl]-piperazin-1-yl}-[1,2,4]thiadiazol-3-yl)-ethyl-amine] showed a half-maximal effective concentration (EC50) of 709 nM.

Turning to `COc1ccc(CCN2CCN(c3nc(C4CCCCC4)ns3)CC2)cc1` [Example 21, 1-(3-Cyclohexyl-[1,2,4]thiadiazol-5-yl)-4-[2-(4-methoxy-phenyl)-ethyl]-piperazine], the EC50 was determined as 2.2 nM.

`COc1cccc(CCN2CCN(c3nc(C4CCCCC4)ns3)CC2)c1` [Example 22, 1-(3-Cyclohexyl-[1,2,4]thiadiazol-5-yl)-4-[2-(3-methoxy-phenyl)-ethyl]-piperazine] gave an EC50 of 3 nM.

In the case of `CCCCc1nsc(N2CCN(CCc3ccc(OC)cc3)CC2)n1` [Example 23, 1-(3-Butyl-[1,2,4]thiadiazol-5-yl)-4-[2-(4-methoxy-phenyl)-ethyl]-piperazine], the midpoint of the response, the EC50, lay at 0.5 nM.

Compound `COc1ccc(CCN2CCN(c3nc(C4CC4)ns3)CC2)cc1` [Example 24, 1-(3-Cyclopropyl-[1,2,4]thiadiazol-5-yl)-4-[2-(4-methoxy-phenyl)-ethyl]-piperazine] came in with an EC50 of 44.5 nM.

As for `CCCCc1nsc(N2CCN(CCc3cccc(OC)c3)CC2)n1` [Example 25, 1-(3-Butyl-[1,2,4]thiadiazol-5-yl)-4-[2-(3-methoxy-phenyl)-ethyl]-piperazine], the half-maximal effective concentration (EC50) was determined as 2.2 nM.

In turn, `COc1cccc(CCN2CCN(c3nc(C4CC4)ns3)CC2)c1` [Example 26, 1-(3-Cyclopropyl-[1,2,4]thiadiazol-5-yl)-4-[2-(3-methoxy-phenyl)-ethyl]-piperazine] yielded an EC50 of 410 nM.

`Fc1ccc(CCN2CCN(c3nc(C4CCOCC4)ns3)CC2)cc1` [Example 27, 1-[2-(4-Fluoro-phenyl)-ethyl]-4-[3-(tetrahydro-pyran-4-yl)-[1,2,4]thiadiazol-5-yl]-piperazine] had an EC50 of 309 nM.

In turn, `COc1ccc(CCN2CCN(c3nc(C4CCOCC4)ns3)CC2)cc1` [Example 28, 1-[2-(4-Methoxy-phenyl)-ethyl]-4-[3-(tetrahydro-pyran-4-yl)[1,2,4]thiadiazol-5-yl]-piperazine] returned an EC50 of 33.3 nM.

As to `COc1cc(CCN2CCN(c3nc(C4CCOCC4)ns3)CC2)ccn1` [Example 29, 1-[2-(2-Methoxy-pyridin-4-yl)-ethyl]-4-[3-(tetrahydro-pyran-4-yl)-[1,2,4]thiadiazol-5-yl]-piperazine], the midpoint of the response, the EC50, lay at 203 nM.

The compound `Cc1ccccc1CN1CCN(c2nc(C3CCOCC3)ns2)CC1` [Example 30, 1-(2-Methyl-benzyl)-4-[3-(tetrahydro-pyran-4-yl)-[1,2,4]thiadiazol-5-yl]-piperazine] had an EC50 of 414 nM.

The compound `Fc1ccc(CCN2CCN(c3nc(C4CCOCC4)ns3)CC2)cc1F` [Example 31, 1-[2-(3,4-Difluoro-phenyl)-ethyl]-4-[3-(tetrahydro-pyran-4-yl)-[1,2,4]thiadiazol-5-yl]-piperazine] had an EC50 of 308 nM. The EC50 values of the last two compounds are within 1.5-fold of each other.
